Reference: patent US12433876B2, “Septin inhibitors for treatment of cancers” (UNIVERSITY OF ROCHESTER, priority 2019, dated 2025)

System: ECC-1 cells
Experiment: Caspase-3/7 activity apoptosis assay
Type: cell-based
Details: ECC-1, 33 μM, 48 hours
Procedure: Cell lines, Culture, and Reagents. Cells were maintained in either DMEM (SKOV-3, KLE, OVCAR-3, OVCAR8-C5 and IGROV-1) or RPMI-1640 (ECC-1 and HCH-1), supplemented with 10% fetal calf serum (or 20% for OVCAR-3), penicillin (100 units/mL), and streptomycin (100 μg/mL) at 37° C. with 5% CO2 in a humidified incubator. Antibodies were purchased from Abcam (septin-2; ab179436) and Cell Signaling Technology; ERK (9102), p-ERK (4370), -actin (3700), u-Tubulin (2144), EGFR (4267) and HER2 (4290). FCF was purchased from Abcam. All other chemicals were from Sigma Aldrich. Synthesis of Derivaties. […] The reaction was monitored using thin-layer chromatography plates with DCM-MeOH or pure ethyl acetate as eluent. Spots were monitored in a UV chamber. […] Quantitative Real-Time PCR. […] Quantitative real-time PCR was conducted using QuantStudio 12 K Flex Real-Time PCR System (ABI) and the Taqman Gene Expression Assay (ABI) consisting of the FAM-labeled probes as follows: SEPT2 (Hs01565417_ml); WFDC2 (Hs00899484_ml); TBP (Hs00427620_ml) or B2M (Hs00187842_ml), which was used as reference for normalization. […] Cell viability, proliferation, and cellular apoptosis were measured using the MTS (Promega), BrdU cell proliferation (Cell Signaling Technology), and Caspase-Glo 3/7 apoptosis detection (Promega) assays, following the respective manufacturer's recommendations with suitable modification. […]

## O=C(Nc1cc(Cl)nc(Cl)c1)Nc1cccc(SC(F)(F)F)c1F [UR214-9]
  apoptosis (caspase-3/7 activity): much more effective
